{"source": "patent US20250041294A1", "about": "“Synergistic compositions for use in the treatment of cancer” (Sartar Therapeutics Oy, priority 2021, published 2025)", "type_in_all_cases": "cell-based", "key": {"GOT3 cell line [1]": {"system": "GOT3 cell line", "assay": "High throughput drug sensitivity and resistance test (CellTiter-Glo, 72 hours)", "conditions": "GOT3; for GOT3 cell line: DSS(combo (BAY2666605))-DSS(drug): drug combined with BAY2666605 (40 nM) minus drug alone; for GOT3 cell line: DSS(combo (anagrelide))-DSS(drug): drug combined with anagrelide hydrochloride (100 nM) minus drug alone", "procedure,_shortened": "(§1)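 Compounds were plated in 10-fold dilutions spanning a 10,000-fold range, alone or with anagrelide (100 nM; SA4, GOT3) or BAY2666605 (40 nM; GIST882, SA4, GOT3). Viability was read by CellTiter-Glo after 72 h and normalized to DMSO and benzethonium chloride controls. Responses were expressed as DSS from four-parameter fits, and the single-agent DSS was subtracted from the combination DSS.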"}, "SA4 cell line [2]": {"system": "SA4 cell line", "assay": "High throughput drug sensitivity and resistance test (CellTiter-Glo, 72 hours)", "conditions": "SA4; for SA4 cell line: DSS(combo (BAY2666605))-DSS(drug): drug combined with BAY2666605 (40 nM) minus drug alone; for SA4 cell line: DSS(combo (anagrelide))-DSS(drug): drug combined with anagrelide hydrochloride (100 nM) minus drug alone", "procedure,_shortened": "as §1"}, "GIST882 cell line [3]": {"system": "GIST882 cell line", "assay": "High throughput drug sensitivity and resistance test (CellTiter-Glo, 72 hours)", "conditions": "drug combined with BAY2666605 (40 nM) minus drug alone", "procedure,_shortened": "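GIST882 viability read by CellTiter-Glo after 72 h, normalized to 0.01% DMSO and 100 μmol/L benzethonium chloride. Compounds also combined with 40 nM BAY2666605. Four-parameter logistic curves; response as drug sensitivity score, with synergy as combination DSS minus single-agent DSS.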"}, "GOT3 and SA4 cell lines": {"system": "GOT3 and SA4 cell lines", "assay": "High throughput drug sensitivity and resistance test, average over cell lines (anagrelide combination)", "conditions": "anagrelide combination, average of SA4 and GOT3; aDSS higher than 3.0 = synergy", "procedure,_shortened": "as §1"}, "[4]": {"system": "GIST882, GOT3 and SA4 cell lines", "assay": "High throughput drug sensitivity and resistance test, average over cell lines (BAY2666605 combination)", "conditions": "for Average DSS (aDSS): BAY2666605 combination, average of GIST882, SA4 and GOT3, aDSS higher than 3.0 = synergy; for synergy in high-throughput screening (in words): with anagrelide (GOT3, SA4) or BAY2666605 (GIST882, GOT3, SA4)", "procedure,_shortened": "as §1"}, "GIST882 cell line [5]": {"system": "GIST882 cell line", "assay": "Drug combination testing with concentration matrices, SynergyFinder 2.0", "conditions": "combination with anagrelide, seven-concentration matrices", "protocol": "(§2) Drug combination testing with anagrelide and 12 selected drugs was performed as described above but with selected drugs using drug concentration matrices covering seven different concentrations with 3 replicate sample of each combinations and in two replicate assays. […] The tool implements synergy scoring with four major reference models: HSA, Loewe, Bliss and ZIP models. The degree of a drug combination effect can be readily visualized as a synergy landscape map over the dose matrix and ZIP synergy score."}, "GOT3 cell line [6]": {"system": "GOT3 cell line", "assay": "Drug combination testing with concentration matrices, SynergyFinder 2.0", "conditions": "combination with anagrelide, seven-concentration matrices", "protocol": "as §2"}, "SA4 cell line [7]": {"system": "SA4 cell line", "assay": "Drug combination testing with concentration matrices, SynergyFinder 2.0", "conditions": "combination with anagrelide, seven-concentration matrices", "protocol": "as §2"}, "[8]": {"system": "GIST882, SA4, and GOT3 cell lines", "assay": "Drug combination testing with concentration matrices, SynergyFinder 2.0 (all three cell lines)", "conditions": "drug concentration matrices and SynergyFinder 2.0, with or without Anagrelide", "protocol": "Drug combination testing with anagrelide and 12 selected drugs was performed as described above but with selected drugs using drug concentration matrices covering seven different concentrations with 3 replicate sample of each combinations and in two replicate assays. Synergy was assessed using an R package SynergyFinder 2.0 (Ianevski A, et al. 2020). The tool implements synergy scoring with four major reference models: HSA, Loewe, Bliss and ZIP models. The degree of a drug combination effect can be readily visualized as a synergy landscape map over the dose matrix and ZIP synergy score."}, "[9]": {"system": "GIST882, SA4 and GOT3 cell lines", "assay": "Cell viability assay (96 well, CellTiter-Glo, 72 hours)", "conditions": "for synergy with Bcl-family inhibitor A-1155463 (in words): FIG. 2, cell line not stated", "protocol": "Cell viability assay. Cells were plated on 96 Well White/Clear Tissue Culture Treated Plate (FALCON, 353377) 24 hours prior to medium change with drugs. Viabilities of cells in different treatments were evaluated 72 hours after treatment incubation with CellTiter-Glo® Luminescent Cell Viability Assay (G7572, Promega) following manufacturer's instruction. Reagent and cells stabilized to room temperature. Reagent added 100 μl/well, shaken for 2 minutes at room temperature and incubated for 10 min at room temperature before measuring the luminescence by using Hidex Sence microplate reader (Hidex oy). Growth medium was used to exclude background signal from the results."}}, "data": [{"smiles": "CN(C)CC#Cc1ccc(OCCCc2sc(N3CCc4cccc(C(=O)Nc5nc6ccccc6s5)c4C3)nc2C(=O)O)c(F)c1", "note": "[A-1155463]", "values": [{"measurement": "GOT3 cell line: DSS(combo (BAY2666605))-DSS(drug)", "setting": "GOT3 cell line [1]", "value": 6.9}, {"measurement": "GOT3 cell line: DSS(combo (anagrelide))-DSS(drug)", "setting": "GOT3 cell line [1]", "value": 7.5}, {"measurement": "SA4 cell line: DSS(combo (BAY2666605))-DSS(drug)", "setting": "SA4 cell line [2]", "value": "−3.6"}, {"measurement": "SA4 cell line: DSS(combo (anagrelide))-DSS(drug)", "setting": "SA4 cell line [2]", "value": 22.2}, {"measurement": "GIST882 cell line: DSS(combo (BAY2666605))-DSS(drug)", "setting": "GIST882 cell line [3]", "value": 23}, {"measurement": "Average DSS (aDSS)", "setting": "GOT3 and SA4 cell lines", "value": 14.85}, {"measurement": "Average DSS (aDSS)", "setting": "[4]", "value": 8.8}, {"measurement": "synergy in high-throughput screening (in words)", "setting": "[4]", "value": "synergistic"}, {"measurement": "Average ZIP synergy score", "setting": "GIST882 cell line [5]", "value": 15.5}, {"measurement": "Average ZIP synergy score", "setting": "GOT3 cell line [6]", "value": 12.7}, {"measurement": "Average ZIP synergy score", "setting": "SA4 cell line [7]", "value": 11.1}, {"measurement": "efficacy in cell lines (in words)", "setting": "[8]", "value": "significant efficacy in cell lines only when they were administered with Anagrelide"}, {"measurement": "synergy with DNMDP (in words)", "setting": "[9]; FIGS. 7-8", "value": "showed synergy with DNMDP"}, {"measurement": "cell viability, combination result (in words)", "setting": "[9]; treated together with 3-hydroxy-anagrelide, FIGS. 5 and 6", "value": "verified the result"}, {"measurement": "cell viability, combination result (in words)", "setting": "[9]; treated together with Anagrelide, FIGS. 3 and 4", "value": "verified the result"}]}, {"smiles": "Cc1c(-c2ccc(N3CCc4cccc(C(=O)Nc5nc6ccccc6s5)c4C3)nc2C(=O)O)cnn1CC12CC3CC(CC(C3)C1)C2", "note": "[A-1331852]", "values": [{"measurement": "GOT3 cell line: DSS(combo (BAY2666605))-DSS(drug)", "setting": "GOT3 cell line [1]", "value": 2.8}, {"measurement": "GOT3 cell line: DSS(combo (anagrelide))-DSS(drug)", "setting": "GOT3 cell line [1]", "value": 3.6}, {"measurement": "SA4 cell line: DSS(combo (BAY2666605))-DSS(drug)", "setting": "SA4 cell line [2]", "value": 12.6}, {"measurement": "SA4 cell line: DSS(combo (anagrelide))-DSS(drug)", "setting": "SA4 cell line [2]", "value": 14.9}, {"measurement": "GIST882 cell line: DSS(combo (BAY2666605))-DSS(drug)", "setting": "GIST882 cell line [3]", "value": 15.1}, {"measurement": "Average DSS (aDSS)", "setting": "GOT3 and SA4 cell lines", "value": 9.25}, {"measurement": "Average DSS (aDSS)", "setting": "[4]", "value": 10.2}, {"measurement": "synergy in high-throughput screening (in words)", "setting": "[4]", "value": "synergistic"}, {"measurement": "Average ZIP synergy score", "setting": "GIST882 cell line [5]", "value": 9.6}, {"measurement": "Average ZIP synergy score", "setting": "GOT3 cell line [6]", "value": 11.6}, {"measurement": "Average ZIP synergy score", "setting": "SA4 cell line [7]", "value": 11.1}, {"measurement": "efficacy in cell lines (in words)", "setting": "[8]", "value": "significant efficacy in cell lines only when they were administered with Anagrelide"}]}, {"smiles": "O=C1CCc2cc(OCCCCc3nnnn3C3CCCCC3)ccc2N1", "note": "[Cilostazol]", "values": [{"measurement": "synergy with Bcl-family inhibitor A-1155463 (in words)", "setting": "[9]", "value": "does not show synergy"}, {"measurement": "synergy with Bcl-family inhibitor A-1155463 (in words)", "setting": "[9]; listed as cilostazol", "value": "not however achieved"}]}, {"smiles": "NS(=O)(=O)OC[C@@H]1C[C@@H](n2ccc3c(N[C@H]4CCc5ccccc54)ncnc32)C[C@@H]1O", "note": "[Pevonedistat, pevonedistat]", "values": [{"measurement": "GOT3 cell line: DSS(combo (BAY2666605))-DSS(drug)", "setting": "GOT3 cell line [1]", "value": 6.2}, {"measurement": "GOT3 cell line: DSS(combo (anagrelide))-DSS(drug)", "setting": "GOT3 cell line [1]", "value": 2.7}, {"measurement": "SA4 cell line: DSS(combo (BAY2666605))-DSS(drug)", "setting": "SA4 cell line [2]", "value": 7}, {"measurement": "SA4 cell line: DSS(combo (anagrelide))-DSS(drug)", "setting": "SA4 cell line [2]", "value": 13.8}, {"measurement": "GIST882 cell line: DSS(combo (BAY2666605))-DSS(drug)", "setting": "GIST882 cell line [3]", "value": 9.3}, {"measurement": "Average DSS (aDSS)", "setting": "GOT3 and SA4 cell lines", "value": 8.25}, {"measurement": "Average DSS (aDSS)", "setting": "[4]", "value": 7.5}, {"measurement": "synergy in high-throughput screening (in words)", "setting": "[4]", "value": "synergistic"}, {"measurement": "Average ZIP synergy score", "setting": "GIST882 cell line [5]", "value": 4.6}, {"measurement": "Average ZIP synergy score", "setting": "GOT3 cell line [6]", "value": 12.7}, {"measurement": "Average ZIP synergy score", "setting": "SA4 cell line [7]", "value": 7.8}]}, {"smiles": "Cn1cc(CNCC2CCN(c3ncc(C(=O)NO)cn3)CC2)c2ccccc21", "note": "[Quisinostat, quisinostat]", "values": [{"measurement": "GOT3 cell line: DSS(combo (BAY2666605))-DSS(drug)", "setting": "GOT3 cell line [1]", "value": 8}, {"measurement": "GOT3 cell line: DSS(combo (anagrelide))-DSS(drug)", "setting": "GOT3 cell line [1]", "value": 1.9}, {"measurement": "SA4 cell line: DSS(combo (BAY2666605))-DSS(drug)", "setting": "SA4 cell line [2]", "value": 16.2}, {"measurement": "SA4 cell line: DSS(combo (anagrelide))-DSS(drug)", "setting": "SA4 cell line [2]", "value": 15.8}, {"measurement": "GIST882 cell line: DSS(combo (BAY2666605))-DSS(drug)", "setting": "GIST882 cell line [3]", "value": 8.7}, {"measurement": "Average DSS (aDSS)", "setting": "GOT3 and SA4 cell lines", "value": 8.85}, {"measurement": "Average DSS (aDSS)", "setting": "[4]", "value": 11.0}, {"measurement": "synergy in high-throughput screening (in words)", "setting": "[4]", "value": "synergistic"}, {"measurement": "Average ZIP synergy score", "setting": "GIST882 cell line [5]", "value": 6.5}, {"measurement": "Average ZIP synergy score", "setting": "GOT3 cell line [6]", "value": 6.9}, {"measurement": "Average ZIP synergy score", "setting": "SA4 cell line [7]", "value": 8.7}]}, {"smiles": "CO[C@H]1C[C@@H]2CC[C@@H](C)[C@@](O)(O2)C(=O)C(=O)N2CCCC[C@H]2C(=O)O[C@H]([C@H](C)C[C@@H]2CC[C@@H](OC(=O)C(C)(CO)CO)[C@H](OC)C2)CC(=O)[C@H](C)/C=C(\\C)[C@@H](O)[C@@H](OC)C(=O)[C@H](C)C[C@H](C)/C=C/C=C/C=C/1C", "note": "[Temsirolimus, temsirolimus]", "values": [{"measurement": "GOT3 cell line: DSS(combo (BAY2666605))-DSS(drug)", "setting": "GOT3 cell line [1]", "value": 1.2}, {"measurement": "GOT3 cell line: DSS(combo (anagrelide))-DSS(drug)", "setting": "GOT3 cell line [1]", "value": 1.1}, {"measurement": "SA4 cell line: DSS(combo (BAY2666605))-DSS(drug)", "setting": "SA4 cell line [2]", "value": 5.3}, {"measurement": "SA4 cell line: DSS(combo (anagrelide))-DSS(drug)", "setting": "SA4 cell line [2]", "value": 9.8}, {"measurement": "GIST882 cell line: DSS(combo (BAY2666605))-DSS(drug)", "setting": "GIST882 cell line [3]", "value": 7.4}, {"measurement": "Average DSS (aDSS)", "setting": "GOT3 and SA4 cell lines", "value": 5.45}, {"measurement": "Average DSS (aDSS)", "setting": "[4]", "value": 4.6}, {"measurement": "synergy in high-throughput screening (in words)", "setting": "[4]", "value": "synergistic"}, {"measurement": "Average ZIP synergy score", "setting": "GIST882 cell line [5]", "value": 2.8}, {"measurement": "Average ZIP synergy score", "setting": "GOT3 cell line [6]", "value": 0.4}, {"measurement": "Average ZIP synergy score", "setting": "SA4 cell line [7]", "value": 3.6}]}]}
